Experimental data from publication PMC4411398 (Science signaling, 2012).
Values belong to the compound of their own block, whether it stands above or below them.

Legend:
Format in all cases: biochemical
[1] = molecular target: T1, GC-A (Rattus norvegicus, UniProt P18910); experiment: GC assay; details: for increase of ANP-stimulated GC-A activity by adenine nucleotide: saturating ANP; for EC50: EC50 for activation
T1 sequence (P18910 29-1057): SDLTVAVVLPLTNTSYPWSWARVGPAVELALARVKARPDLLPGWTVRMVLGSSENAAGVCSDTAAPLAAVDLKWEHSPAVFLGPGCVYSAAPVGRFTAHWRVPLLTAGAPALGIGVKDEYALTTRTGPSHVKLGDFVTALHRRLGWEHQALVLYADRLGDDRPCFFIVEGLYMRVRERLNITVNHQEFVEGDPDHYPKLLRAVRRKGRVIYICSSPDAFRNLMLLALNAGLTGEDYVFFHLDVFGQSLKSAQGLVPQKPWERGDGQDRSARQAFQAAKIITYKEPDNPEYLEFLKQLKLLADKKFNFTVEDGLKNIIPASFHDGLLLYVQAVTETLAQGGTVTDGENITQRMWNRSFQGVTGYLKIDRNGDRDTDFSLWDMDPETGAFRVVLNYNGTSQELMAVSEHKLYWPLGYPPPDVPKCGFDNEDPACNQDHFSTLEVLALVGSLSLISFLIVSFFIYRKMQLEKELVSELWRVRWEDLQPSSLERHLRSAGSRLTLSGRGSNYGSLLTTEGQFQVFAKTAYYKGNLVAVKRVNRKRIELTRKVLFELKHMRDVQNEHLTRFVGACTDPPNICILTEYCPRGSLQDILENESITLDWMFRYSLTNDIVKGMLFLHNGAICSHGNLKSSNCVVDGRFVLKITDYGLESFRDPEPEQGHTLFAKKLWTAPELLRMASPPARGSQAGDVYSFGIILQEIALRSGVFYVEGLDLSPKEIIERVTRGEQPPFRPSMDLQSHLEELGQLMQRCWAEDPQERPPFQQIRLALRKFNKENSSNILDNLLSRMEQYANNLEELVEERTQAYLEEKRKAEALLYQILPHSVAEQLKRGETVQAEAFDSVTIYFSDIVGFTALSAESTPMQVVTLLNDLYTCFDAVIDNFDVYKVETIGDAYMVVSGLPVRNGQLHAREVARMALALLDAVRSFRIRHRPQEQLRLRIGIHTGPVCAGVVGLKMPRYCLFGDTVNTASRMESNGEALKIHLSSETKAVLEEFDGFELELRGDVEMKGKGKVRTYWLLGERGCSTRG
T1 sequence (P01161 123-150 partner limits assumed): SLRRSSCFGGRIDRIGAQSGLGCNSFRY

[2] = molecular target: GC-B (Rattus norvegicus, UniProt P16067); experiment: GC assay
Sequence of GC-B (P16067 17-1047): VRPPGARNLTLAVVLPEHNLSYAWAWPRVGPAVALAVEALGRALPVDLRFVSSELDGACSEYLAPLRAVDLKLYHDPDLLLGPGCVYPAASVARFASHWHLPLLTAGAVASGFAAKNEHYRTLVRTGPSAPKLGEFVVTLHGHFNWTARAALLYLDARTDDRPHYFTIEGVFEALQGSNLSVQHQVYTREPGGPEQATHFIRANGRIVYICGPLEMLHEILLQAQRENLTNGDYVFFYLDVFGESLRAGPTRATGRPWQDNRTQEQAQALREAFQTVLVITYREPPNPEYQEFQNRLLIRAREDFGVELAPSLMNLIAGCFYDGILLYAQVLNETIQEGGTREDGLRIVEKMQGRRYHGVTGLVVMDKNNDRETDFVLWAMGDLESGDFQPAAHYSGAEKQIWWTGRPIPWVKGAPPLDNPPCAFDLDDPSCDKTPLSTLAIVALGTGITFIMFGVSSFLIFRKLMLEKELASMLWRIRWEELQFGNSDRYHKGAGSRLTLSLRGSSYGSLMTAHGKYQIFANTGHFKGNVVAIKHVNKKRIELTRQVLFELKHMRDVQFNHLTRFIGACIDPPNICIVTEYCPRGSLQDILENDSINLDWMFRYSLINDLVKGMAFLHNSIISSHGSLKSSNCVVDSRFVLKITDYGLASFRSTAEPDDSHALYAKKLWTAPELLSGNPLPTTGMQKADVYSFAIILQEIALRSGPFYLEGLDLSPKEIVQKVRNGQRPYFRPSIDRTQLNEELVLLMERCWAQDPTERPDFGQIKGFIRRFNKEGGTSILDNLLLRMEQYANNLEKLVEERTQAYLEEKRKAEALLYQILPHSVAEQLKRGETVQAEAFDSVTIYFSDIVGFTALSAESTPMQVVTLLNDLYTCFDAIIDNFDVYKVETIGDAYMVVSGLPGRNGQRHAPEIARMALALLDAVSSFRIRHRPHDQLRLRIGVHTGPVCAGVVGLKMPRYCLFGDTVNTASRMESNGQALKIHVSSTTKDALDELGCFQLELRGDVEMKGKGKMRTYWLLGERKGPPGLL
Sequence of GC-B (P55207 105-126 partner limits assumed): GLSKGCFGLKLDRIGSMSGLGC

[3] = molecular target: endogenous GC-B (Mus musculus, UniProt Q6VVW5); experiment: GC assay in crude membranes from NIH 3T3 cells; details: 125 nM CNP, 0.1 mM GTP
Sequence of endogenous GC-B (Q6VVW5 17-1047): as the sequence (P16067 17-1047) above, with H100R, T188A, E385D, I449V, R1024Q counted along it

[4] = CNP-stimulated, presence of ATP
[5] = NP-stimulated, 9 min, 10 μM ATP
[6] = NP-stimulated, 9 min, 750 μM ATP
[7] = 1 μM ANP, 9 min, nucleotide at 1 mM
[8] = NP-stimulated, 9 min, 100 μM ATP
[9] = presence of CNP, absence of ATP, increasing Mg2+GTP

increase of ANP-stimulated GC-A activity by adenine nucleotide ([1]; 0.1 mM GTP): failed to increase activity
Compound: Nc1ncnc2c1ncn2[C@@H]1O[C@H](COP(=O)(O)O)[C@@H](O)[C@H]1O [AMP, adenosine monophosphate]

Compound: Nc1ncnc2c1ncn2[C@@H]1O[C@H](COP(=O)(O)OP(=O)(O)OP(=O)(O)O)[C@@H](O)[C@H]1O [ATP, adenosine triphosphate]
S0.5 [2, 4]: 0.09 ± 0.02 mM
Vmax [2, 4]: 41 ± 3.1 nmol mg^−1 (9 min)^−1
EC50 ([2]; EC50 for ATP activation, approximate value stated in the discussion): ~100 µM
EC50 ([2]; EC50 for activation, NP-stimulated, 0.1 mM GTP): 40 µM
EC50 ([2]; EC50 for activation, NP-stimulated, 0.3 mM GTP): 26 µM
EC50 ([2]; EC50 for activation, NP-stimulated, 0.9 mM GTP): 16 µM
EC50 ([2]; EC50 for activation, NP-stimulated, 5.4 mM GTP): 19 µM
Hill coefficient [2, 5]: 0.9 ± 0.13
Michaelis constant [2, 5]: 0.4 ± 0.11 mM
Hill coefficient [2, 6]: 0.9 ± 0.24
Michaelis constant [2, 6]: 0.2 ± 0.18 mM
Hill coefficient ([2]; absence of NPs, presence of ATP): 1.1
S0.5 ([2]; basal (no NP), presence of ATP): 1.0 ± 0.15 mM
Vmax ([2]; basal (no NP), presence of ATP): 4 ± 0.3 nmol mg^−1 (9 min)^−1
Km [1, 7]: 100 ± 20 µM
EC50 ([1]; NP-stimulated, 0.1 mM GTP): 77 µM
EC50 ([1]; NP-stimulated, 0.3 mM GTP): 38 µM
EC50 ([1]; NP-stimulated, 0.9 mM GTP): 38 µM
EC50 ([1]; NP-stimulated, 5.4 mM GTP): 16 µM
Km ([1]; NP-activated receptor, presence of ATP): ~100 µM
Hill coefficient [1, 5]: 1.2 ± 0.08
Hill coefficient [1, 8]: 0.9 ± 0.07
Michaelis constant [1, 8]: 0.08 ± 0.010 mM

Hill coefficient [1, 7]: 1.1 ± 0.18
Km [1, 7]: 200 ± 40 µM
Compound: Nc1ncnc2c1ncn2[C@@H]1O[C@H](COP(=O)(O)OP(=O)(O)O)[C@@H](O)[C@H]1O [ADP, adenosine diphosphate]

increase of ANP-stimulated GC-A activity by adenine nucleotide ([1]; 0.1 mM GTP): failed to increase activity
Compound: Nc1ncnc2c1ncn2[C@@H]1O[C@H](CO)[C@@H](O)[C@H]1O [adenosine]

Compound: C-type natriuretic peptide [CNP]
increase of maximal velocity ([2]; absence of ATP): 13 fold
S0.5 [2, 9]: 1.0 ± 0.15 mM
Vmax [2, 9]: 49 ± 3.7 nmol mg^−1 (9 min)^−1
increase of GC-B activity ([3]; absence of ATP): no statistically significant increase in activity
increase of GC-B activity ([3]; presence of 1 mM ATP): more than fourfold

Hill coefficient [1, 7]: 1.2 ± 0.24
Km [1, 7]: 400 ± 80 µM
activation of GC-A compared with ATP ([1]; single-substrate concentration GC assays, 0.1 mM GTP, ANP): poorer activator of GC-A than was ATP
Compound: Nc1ncnc2c1ncn2[C@H]1C[C@H](O)[C@@H](COP(=O)(O)OP(=O)(O)OP(=O)(O)O)O1 [2′-deoxy-ATP]
